In brackets after ≈: the same amount, converted by molar mass. Where a SMILES comes first, the peptide text is derived from it. Bridges are numbered along the chain shown (N, C = ends). [ ]: non-standard residue; d: D form. The star is where a group is joined. X11 = Cn1nc(C(=O)*)c2ccccc21; X62 = O=C(c1cc(Br)c(Br)s1)*; X36 = O=C(c1ncc(Br)cc1Br)*; Dab = NCC[C@H](N)C(=O)O; Abu = CC[C@H](N)C(=O)O; Dap = NC[C@H](N)C(=O)O; X71 = O=C(c1sccc1Cl)*
What was measured:
Format in all cases: cell-based
[1] = test system: Acinetobacter baumannii ATCC 17978; conditions: ATCC 17978
How it was run: (§1)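 Values are MICs of the lipopeptide trifluoroacetic acid salts. Dilution series were set up in CAMHB as CLSI M100-S24 specifies.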

[2] = test system: Acinetobacter baumannii FADDI-AB034; conditions: FADDI-AB034
How it was run: as §1

[3] = test system: Enterobacter cloacae FADDI-EC001; conditions: FADDI-EC001
How it was run: (§2)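 Gram-negative bacteria susceptible to polymyxin were exposed to lipopeptide trifluoroacetates in CAMHB, and growth inhibition was read as the MIC by the CLSI microdilution protocol.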

[4] = test system: Enterobacter cloacae FADDI-EC003; conditions: FADDI-EC003
How it was run: as §1

[5] = test system: Enterobacter cloacae FADDI-EC006; conditions: FADDI-EC006
How it was run: as §1

[6] = test system: Klebsiella pneumoniae FADDI-KP022; conditions: FADDI-KP022
How it was run: as §1

[7] = test system: Klebsiella pneumoniae FADDI-KP032; conditions: FADDI-KP032
How it was run: as §1

[8] = test system: Klebsiella pneumoniae Kp BM1; conditions: Kp BM1
How it was run: as §2

[9] = test system: Pseudomonas aeruginosa ATCC 27853; conditions: ATCC 27853
How it was run: as §1

[10] = test system: Pseudomonas aeruginosa FADDI-PA01; conditions: FADDI-
How it was run: as §1

[11] = test system: Pseudomonas aeruginosa FADDI-PA022; conditions: FADDI-PA022
How it was run: as §1

[12] = test system: Pseudomonas aeruginosa FADDI-PA038; conditions: FADDI-PA038
How it was run: as §1

[13] = test system: Acinetobacter baumannii FADDI-AB030; experiment: microbe, parasite or virus in culture; conditions: FADDI-AB030
How it was run: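 Broth microdilution MIC in cation-adjusted Mueller-Hinton broth per CLSI M100-S24; lipopeptides tested as TFA salts. FADDI-AB030 is a multidrug-resistant clinical isolate. Polymyxin B sulphate served as control.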

| SMILES | Minimum inhibitory concentration [1] [µg/mL] | Minimum inhibitory concentration [2] [µg/mL] | Minimum inhibitory concentration [3] [µg/mL] | Minimum inhibitory concentration [4] [µg/mL] | Minimum inhibitory concentration [5] [µg/mL] | Minimum inhibitory concentration [6] [µg/mL] | Minimum inhibitory concentration [7] [µg/mL] | Minimum inhibitory concentration [8] [µg/mL] | Minimum inhibitory concentration [9] [µg/mL] | Minimum inhibitory concentration [10] [µg/mL] | Minimum inhibitory concentration [11] [µg/mL] | Minimum inhibitory concentration [12] [µg/mL] | Minimum inhibitory concentration [13] [µg/mL] |
| --- | --- | --- | --- | --- | --- | --- | --- | --- | --- | --- | --- | --- | --- |
| CC(C)C[C@H]1NC(=O)[C@H](CCN)NC(=O)[C@@H](NC(=O)[C@H](CN)NC(=O)[C@@H](NC(=O)[C@H](CCN)NC(=O)c2ncc(Br)cc2Br)[C@@H](C)O)CCNC(=O)[C@H]([C@@H](C)O)NC(=O)[C@H](CCN)NC(=O)[C@H](CCN)NC(=O)[C@H]([C@@H](C)O)NC1=O [Compound 29] (X36-[Dab]T[Dap][Dab][Dab][dL]T[Dab][Dab]T; lactam 4-C) | 2 (≈ 1.58 µM) | 2 (≈ 1.58 µM) | 0.25 (≈ 0.197 µM) | 0.25 (≈ 0.197 µM) | <0.125 | 0.25 (≈ 0.197 µM) | 1 (≈ 0.79 µM) | 0.5 (≈ 0.395 µM) | 1 (≈ 0.79 µM) | 0.5 (≈ 0.395 µM) | 0.25 (≈ 0.197 µM) | 1 (≈ 0.79 µM) | 1 (≈ 0.79 µM) |
| CC[C@@H]1NC(=O)[C@@H](CC(C)C)NC(=O)[C@H](CCN)NC(=O)[C@@H](NC(=O)[C@H](CN)NC(=O)[C@@H](NC(=O)[C@H](CCN)NC(=O)c2nn(C)c3ccccc23)[C@@H](C)O)CCNC(=O)[C@H]([C@@H](C)O)NC(=O)[C@H](CCN)NC(=O)[C@H](CCN)NC1=O [Compound 51] (X11-[Dab]T[Dap][Dab][Dab][dL][Abu][Dab][Dab]T; lactam 4-C) | 0.25 (≈ 0.218 µM) | 0.25 (≈ 0.218 µM) | <0.125 | 0.25 (≈ 0.218 µM) | 0.5 (≈ 0.437 µM) | <0.125 | <0.125 | <0.125 | 0.25 (≈ 0.218 µM) | 0.25 (≈ 0.218 µM) | 0.25 (≈ 0.218 µM) | 1 (≈ 0.873 µM) | <0.125 |
| CC[C@@H]1NC(=O)[C@@H](CC(C)C)NC(=O)[C@H](CCN)NC(=O)[C@@H](NC(=O)[C@H](CN)NC(=O)[C@@H](NC(=O)[C@H](CCN)NC(=O)c2cc(Br)c(Br)s2)[C@@H](C)O)CCNC(=O)[C@H]([C@@H](C)O)NC(=O)[C@H](CCN)NC(=O)[C@H](CCN)NC1=O [Compound 83] (X62-[Dab]T[Dap][Dab][Dab][dL][Abu][Dab][Dab]T; lactam 4-C) | 0.25 (≈ 0.199 µM) | <0.125 | 0.5 (≈ 0.398 µM) | 0.25 (≈ 0.199 µM) | <0.125 | <0.125 | 0.25 (≈ 0.199 µM) | <0.125 | 0.25 (≈ 0.199 µM) | 0.25 (≈ 0.199 µM) | 0.25 (≈ 0.199 µM) | 0.5 (≈ 0.398 µM) | <0.125 |
| CC[C@@H]1NC(=O)[C@@H](CC(C)C)NC(=O)[C@H](CCN)NC(=O)[C@@H](NC(=O)[C@H](CN)NC(=O)[C@@H](NC(=O)[C@H](CCN)NC(=O)c2sccc2Cl)[C@@H](C)O)CCNC(=O)[C@H]([C@@H](C)O)NC(=O)[C@H](CCN)NC(=O)[C@H](CCN)NC1=O [Compound 89] (X71-[Dab]T[Dap][Dab][Dab][dL][Abu][Dab][Dab]T; lactam 4-C) | 4 (≈ 3.53 µM) | 4 (≈ 3.53 µM) | <0.125 | <0.125 | <0.125 | <0.125 | 0.25 (≈ 0.221 µM) | <0.125 | 0.25 (≈ 0.221 µM) | 0.25 (≈ 0.221 µM) | 0.25 (≈ 0.221 µM) | 1 (≈ 0.884 µM) | 2 (≈ 1.77 µM) |

Source: patent US11225505B2, “Antimicrobial polymyxin derivative compounds” (MONASH UNIVERSITY, priority 2015, dated 2022)
